Reference: patent US12037324B2, “Biarylmethyl heterocycles” (Université de Montréal, priority 2016, dated 2024)
pEC50: −log10 of the molar value.

What was measured:
hAT1R [1] = molecular target: T1, hAT1R (Homo sapiens, UniProt P30556); assay: cell-based; details: agonist mode; for pEC50: read-out: BRET P63 EC50
T1 sequence (P30556 1-359): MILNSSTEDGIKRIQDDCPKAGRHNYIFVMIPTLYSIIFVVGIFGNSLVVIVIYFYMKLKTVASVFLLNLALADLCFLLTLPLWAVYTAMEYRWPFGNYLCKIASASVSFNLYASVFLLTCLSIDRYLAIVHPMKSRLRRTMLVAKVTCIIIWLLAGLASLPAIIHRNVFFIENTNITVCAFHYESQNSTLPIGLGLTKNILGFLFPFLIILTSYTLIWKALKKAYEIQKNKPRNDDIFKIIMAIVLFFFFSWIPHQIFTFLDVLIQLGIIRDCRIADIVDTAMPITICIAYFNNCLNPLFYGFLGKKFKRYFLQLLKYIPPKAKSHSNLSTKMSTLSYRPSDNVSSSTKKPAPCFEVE

hAT1R [2] = molecular target: T1, hAT1R; assay: BRET Gq biosensor assay, agonist response, HEK293 cells; assay type: cell-based; details: section of the 42nd table directly before the BRET P63 section
Procedure, shortened: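 HEK293 cells co-transfected with signal-peptide-optimized hAT1R plus Gαq-Rluc, Gβ1 and GFP-Gγ1, assayed 48 h later in Tyrode's buffer pH 7.4. Coelenterazine (2 μM final) added, then compound; BRET2 (515/410 nm) read after 5 min at room temperature. EC50 by 4-parameter fit, normalized to unstimulated (0%) and maximal AngII (100%).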

hAT1R [3] = molecular target: T1, hAT1R; assay: BRET β-arrestin2 biosensor assay, higher receptor expression (hAT1R 5 ng/well), HEK293 cells; assay type: cell-based; details: for pEC50: High AT1R Expression
AGTR1 = molecular target: T2, AGTR1 (Homo sapiens, UniProt P30556); assay: DiscoveRx β-arrestin2 recruitment assay (enzyme complementation, Pathunter CHO-K1 AGTR1 β-arrestin cell line); assay type: cell-based; details: DiscoveRx β-arrestin2 recruitment; for DiscoveRx β-arrestin2 Ymax (%): maximal response
T2 construct: host or cells: Pathunter CHO-K1 AGTR1 β-arrestin cell line (CHO-K1)
T2 sequence (P30556 1-359): T1 sequence (P30556 1-359)
Procedure, shortened: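 CHO-K1 cells expressing AGTR1 with β-arrestin2 enzyme-complementation reporter, plated 14-16 h ahead in 1% serum medium, then exposed to compounds for 90 min at 37° C. Chemiluminescence read after 1 h detection. EC50 (agonist) or IC50 (antagonist) from 4-parameter logistic fit; activity as percentage of All maximal effect.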

hAT1R [4] = molecular target: T1, hAT1R; assay: cell-based; details: section of the 42nd table ending at r951, example numbering restarts after the DiscoveRx section; read-out: β-arrestin2 EC50

Row | SMILES | BRET P63 Ymax (hAT1R [1]) [%] | pEC50 (hAT1R [1]) | pEC50 (hAT1R [2]) | BRET β-Arrestin2 High AT1R Expression Ymax (%) (hAT1R [3]) | pEC50 (hAT1R [3]) | pEC50 (AGTR1) | DiscoveRx β-arrestin2 Ymax (%) (AGTR1) | pEC50 (hAT1R [4])
1 | CCCCC(=O)N(Cc1ccc(-c2cc(-c3cc(C)ccn3)ccc2-c2nn[nH]n2)cc1)C1(C(=O)O)CCCCC1 [Example 295] | 12.9 | 6.92 | 6.66 | 92.5 | 7.85 | 7.32 | 60.3 | 7.41
2 | CCOc1nc2cccc(C(=O)O)c2n1Cc1ccc(-c2cc(-c3ccccc3)ccc2-c2noc(=O)[nH]2)cc1 [Example 311, 2-ethoxy-1-((6′-(5-oxo-4,5-dihydro-1,2,4-oxadiazol-3-yl)-[1,1′:3′,1″-terphenyl]-4-yl)methyl)-1H-benzo[d]imidazole-7-carboxylic acid] | 13.2 | 8.44 | 7.74 | 92.0 | 8.82 | 8.41 | 77.6 | 8.38
3 | CCOc1nc2cccc(C(=O)O)c2n1Cc1ccc(-c2cc(-c3ccccc3)ccc2-c2nn[nH]n2)cc1 [Example 312, 1-((6′-(2H-tetrazol-5-yl)-[1,1′:3′,1″-terphenyl]-4-yl)methyl)-2-ethoxy-1H-benzo[d]imidazole-7-carboxylic acid] | 9.4 | 7.76 | 7.68 | 91.8 | 8.59 | 7.65 | 79.9 | 8.24
4 | CCOc1nc2cccc(C(=O)O)c2n1Cc1ccc(-c2cc(-c3cccc(C)c3)ccc2C(=O)O)cc1 [Example 313, 1-((6′-carboxy-3″-methyl-[1,1′:3′,1″-terphenyl]-4-yl)methyl)-2-ethoxy-1H-benzo[d]imidazole-7-carboxylic acid] | 6.3 | 7.33 | 7.09 | 92.9 | 8.11 | 7.55 | 46.1 | 7.67
5 | CCOc1nc2cccc(C(=O)O)c2n1Cc1ccc(-c2cc(-c3ccccc3)ccc2C(=O)O)cc1 [Example 314, 1-((6′-carboxy-[1,1′:3′,1″-terphenyl]-4-yl)methyl)-2-ethoxy-1H-benzo[d]imidazole-7-carboxylic acid] | 12.8 | 7.17 | 6.89 | 90.3 | 8.24 | 8.46 | 66.8 | 7.44
6 | CCOc1nc2cccc(C(=O)O)c2n1Cc1ccc(-c2cc(-c3c[nH]c4ccccc34)ccc2-c2noc(=O)[nH]2)cc1 [Example 322] | 5.1 | 7.27 | 7.03 | 80.9 | 8.08 | 7.41 | 33.7 | 8.01
7 | CCOc1nc2cccc(C(=O)O)c2n1Cc1ccc(-c2cc(Oc3cccc(OC(F)(F)F)c3)ccc2-c2nn[nH]n2)cc1 [Example 335] |  | < 5.00 | 6.14 |  |  | 7.44 | 22.7 | 8.22
8 | CCOc1nc2cccc(C(=O)O)c2n1Cc1ccc(-c2cc(Oc3ccc(F)cc3)ccc2-c2nn[nH]n2)cc1 [Example 336] |  | < 5.00 | 7.33 |  |  | 7.79 | 61.4 | 7.91
9 | CCOc1nc2cccc(C(=O)O)c2n1Cc1ccc(-c2cc(Oc3cnccc3C)ccc2-c2nn[nH]n2)cc1 [Example 337] |  | < 5.00 | 7.25 |  |  | 7.39 | 85.6 | 6.20
10 | CCOc1nc2cccc(C(=O)O)c2n1Cc1ccc(-c2cc(-n3ccc(C(F)(F)F)n3)ccc2-c2nn[nH]n2)cc1 [Example 338] |  | < 5.00 | 7.51 |  |  | 7.75 | 68.9 | 7.79
11 | CCOc1nc2cccc(C(=O)O)c2n1Cc1ccc(-c2cc(-n3cnc4ccccc43)ccc2-c2nn[nH]n2)cc1 [Example 339] |  | < 5.00 | 7.28 |  |  | 7.97 | 58.0 | 7.89
12 | CCCCc1ncc(C(=O)NCc2cnn(C)c2)n1Cc1ccc(-c2cc(-c3ccccc3)ccc2-c2nn[nH]n2)cc1 [Example 346] | 6.0 | 7.71 | 7.17 | 92.1 | 8.15 | 7.89 | 44.5 | 7.95
13 | CCCCc1nc(Cl)c(C(=O)O)n1Cc1ccc(-c2cc(-c3ccccc3)ccc2-c2nn[nH]n2)cc1 [Example 384, 1-((6′-(2H-tetrazol-5-yl)-[1,1′:3′,1″-terphenyl]-4-yl)methyl)-2-butyl-4-chloro-1H-imidazole-5-carboxylic acid] |  | < 5.00 | 7.41 | 83.8 | 8.16 | 8.10 | 49.3 | 7.97
14 | CCCCc1nc(Cl)c(C(=O)O)n1Cc1ccc(-c2cc(-c3cn(C(C)C)nc3C(F)(F)F)ccc2-c2nn[nH]n2)cc1 [Example 388] | 30.4 | 7.40 | 6.09 | 96.2 | 8.34 | 7.35 | 71.7 | 7.57
15 | CCCCc1nc(Cl)c(C(=O)O)n1Cc1ccc(-c2cc(-c3ccc(C(=O)N(C)C)cc3)ccc2-c2nn[nH]n2)cc1 [Example 390] | 11.9 | 6.90 | 7.63 | 95.3 | 7.61 | 7.93 | 53.5 | 7.01
16 | CCCCc1nc(Cl)c(C(=O)O)n1Cc1ccc(-c2cc(-c3c[nH]c4ccccc34)ccc2-c2nn[nH]n2)cc1 [Example 391] |  | < 4.00 | 6.74 | 78.3 | 7.93 | 7.34 | 23.3 | 7.96
17 | CCCc1nc(CC)c(C(=O)O)n1Cc1ccc(-c2cc(-c3ccccc3)ccc2-c2nn[nH]n2)cc1 [Example 396, 1-((6′-(2H-tetrazol-5-yl)-[1,1′:3′,1″-terphenyl]-4-yl)methyl)-4-ethyl-2-propyl-1H-imidazole-5-carboxylic acid] |  | < 4.00 | 6.56 | 88.8 | 8.19 | 8.30 | 57.8 | 7.85
18 | CCCCc1nc(Cl)c(C(=O)O)n1Cc1ccc(-c2cc(N3CCC[C@H](C)C3)ccc2-c2nn[nH]n2)cc1 [Example 418, (S)-2-butyl-4-chloro-1-((5′-(3-methylpiperidin-1-yl)-2′-(2H-tetrazol-5-yl)-[1,1′-biphenyl]-4-yl)methyl)-1H-imidazole-5-carboxylic acid] |  | < 5.00 | 6.32 |  |  | 7.17 | 31.2 | 6.81
19 | CCCCc1nc(Cl)c(C(=O)O)n1Cc1ccc(-c2cc(N3CCC[C@@H](C)C3)ccc2-c2nn[nH]n2)cc1 [Example 419, (R)-2-butyl-4-chloro-1-((5′-(3-methylpiperidin-1-yl)-2′-(2H-tetrazol-5-yl)-[1,1′-biphenyl]-4-yl)methyl)-1H-imidazole-5-carboxylic acid] |  | < 5.00 | 6.64 |  |  | 6.92 | 33.9 | 7.07
20 | CCCc1nc(CC)c(C(=O)O)n1Cc1ccc(-c2cc(-c3ccccc3)ccc2-c2nn[nH]n2)c(C)c1 [Example 425] |  | < 5.00 | 6.98 |  |  | 7.56 | 54.2 | 7.32
21 | CCCc1nc(CC)c(C(N)=O)n1Cc1ccc(-c2cc(-c3ccccc3)ccc2-c2nn[nH]n2)c(C)c1 [Example 426] |  | < 5.00 | 7.07 |  |  | 7.47 | 52.5 | 7.30
22 | CCCCc1nc(Cl)c(C(=O)O)n1Cc1ccc(-c2cc(Oc3ccccn3)ccc2-c2nn[nH]n2)cc1 [Example 427, 2-Butyl-4-chloro-1-((5′-(pyridin-2-yloxy)-2′-(2H-tetrazol-5-yl)-[1,1′-biphenyl]-4-yl)methyl)-1H-imidazole-5-carboxylic acid] |  | < 5.00 | 6.24 |  |  | 7.05 | 19.6 | < 5.00
